The values that follow come from ChEMBL document CHEMBL3588816, “Molecular modeling of the human P2Y14 receptor: A template for structure-based design of selective agonist ligands” (Bioorg Med Chem, 2015).

Active and inactive are the calls of the source. The rule behind the calls is not given here.

By EC50 is commonly meant the concentration giving half of the maximal effect.

The first experiment has as its target T1, P2Y purinoceptor 14 (Homo sapiens) (UniProt Q15391).
T1 sequence (whole entry): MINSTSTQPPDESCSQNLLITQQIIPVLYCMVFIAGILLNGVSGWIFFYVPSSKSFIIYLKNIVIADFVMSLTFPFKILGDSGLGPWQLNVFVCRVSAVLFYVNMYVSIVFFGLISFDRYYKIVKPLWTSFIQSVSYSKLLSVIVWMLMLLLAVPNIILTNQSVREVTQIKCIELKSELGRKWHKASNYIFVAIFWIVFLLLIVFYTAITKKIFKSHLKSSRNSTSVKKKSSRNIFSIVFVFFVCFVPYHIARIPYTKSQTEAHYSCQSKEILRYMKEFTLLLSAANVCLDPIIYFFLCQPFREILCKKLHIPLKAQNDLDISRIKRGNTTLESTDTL
Briefly: Agonist activity at recombinant human P2Y14 receptor expressed in African green monkey COS7 cells co-transfected with Galphaqi assessed as stimulation of phospholipase Cbeta at 10 uM. The format is cell-based. Conditions: COS-7.
As to `[N-]=[N+]=Nc1cn([C@@H]2O[C@H](COP(=O)(O)OP(=O)(O)O[C@H]3O[C@H](CO)[C@@H](O)[C@H](O)[C@H]3O)[C@@H](O)[C@H]2O)c(=O)[nH]c1=O`, the result was inactive.

As to `O=c1[nH]c(=O)n([C@@H]2O[C@H](COP(=O)(O)OP(=O)(O)O[C@H]3O[C@H](CO)[C@@H](O)[C@H](O)[C@H]3O)[C@@H](O)[C@H]2O)cc1I`, the outcome was inactive.

As to `[N-]=[N+]=N[C@@H]1[C@H](O)[C@@H](COP(=O)(O)OP(=O)(O)O[C@H]2O[C@H](CO)[C@@H](O)[C@H](O)[C@H]2O)O[C@H]1n1ccc(=O)[nH]c1=O`, the outcome was inactive.

For `Nc1cn([C@@H]2O[C@H](COP(=O)(O)OP(=O)(O)O[C@H]3O[C@H](CO)[C@@H](O)[C@H](O)[C@H]3O)[C@@H](O)[C@H]2O)c(=O)[nH]c1=O`, the outcome was inactive.

Consider `N[C@@H]1[C@H](O)[C@@H](COP(=O)(O)OP(=O)(O)O[C@H]2O[C@H](CO)[C@@H](O)[C@H](O)[C@H]2O)O[C@H]1n1ccc(=O)[nH]c1=O`, for which the outcome was inactive.

With `O=c1ccn([C@]23C[C@H]2[C@H](COP(=O)(O)OP(=O)(O)O[C@H]2O[C@H](CO)[C@@H](O)[C@H](O)[C@H]2O)[C@@H](O)[C@H]3O)c(=O)[nH]1`, the result was inactive.

Regarding `O=c1ccn([C@H]2[C@H](O)[C@H](O)[C@]3(COP(=O)(O)OP(=O)(O)O[C@H]4O[C@H](CO)[C@@H](O)[C@H](O)[C@H]4O)C[C@H]23)c(=O)[nH]1`, the result was inactive.

The next experiment deals with T2, P2Y purinoceptor 14 (Homo sapiens, UniProt Q15391).
T2 sequence (Q15391 whole entry): T1 sequence (whole entry)
Nature of the experiment: Agonist activity at recombinant human P2Y14 receptor expressed in African green monkey COS7 cells co-transfected with Galphaqi assessed as stimulation of phospholipase Cbeta. The format is cell-based, COS-7.
Conditions: not given
As for `O=c1ccn([C@@H]2O[C@H](COP(=O)(O)OP(=O)(O)O[C@H]3O[C@H](CO)[C@@H](O)[C@H](O)[C@H]3O)[C@@H](O)[C@H]2O)c(=S)[nH]1`, the EC50 amounted to 11 nM.
